In patent US4977180A, “Novel prolinal derivatives” (Ono Pharmaceutical Co., Ltd., priority 1987, dated 1990):
Where a SMILES comes first, the peptide text is derived from it. [ ]: non-standard residue; d: D form. The star is where a group is joined. ξ: configuration not given here. Cbz = O=C(OCc1ccccc1)*; ξP = O=C(O)C1CCCN1; CH2Cl = ClC*

Biological target: T1, prolyl endopeptidase (Bos taurus, UniProt Q9XTA2)
T1 construct: prolyl endopeptidase which was purified from bovine brain; from tissue; host or cells: bovine brain
Assay: Prolyl endopeptidase inhibitory activity in vitro
Format: biochemical
Conditions: prolyl endopeptidase purified from bovine brain, pH 7.5, 37° C., substrate N-benzyloxycarbonyl-glycyl-prolyl-p-nitroanilide, 30 mins' incubation, read-out: Concentration for 50% inhibition IC50
Description: Inhibitory activity of prolyl endopeptidase in vitro was measured by the following test system.
A mixed solution of 20 mM tris-HCl buffer (pH 7.5; 935 μl; containing 10 mM EDTA and 10 mM mercaptoethanol), a solution of a compound of the present invention in DMSO (10 μl) and a solution of prolyl endopeptidase which was purified from bovine brain (0.13 unit; prepared by the method described in J. Biochem., 94, 1179 (1983)) in tris-HCl buffer (15 μl) was preincubated for 15 mins at 37° C.
To the solution, 5 mM of N-benzyloxycarbonyl-glycyl-prolyl-p-nitroanilide (40 μl) in a mixture of 40% dioxane-60% water was added. The solution was incubated for 1 min at the same temperature.
Optical absorption (a1) at 405 nm of the solution, and optical absorption (a2) at 405 nm of the solution after 30 mins' further incubation at 37° C. were measured.
Optical absorptions (b1 and b2) of the solutions using DMSO instead of the solution of the compound of the present invention were also measured.
Inhibitory ratio was calculated by the following expression and IC50 (required concentration for 50% inhibition) was obtained (See Protein, Nucleic acid and Enzyme 25(6), 513, 1980.). [formula]

T1 sequence (Q9XTA2 whole entry): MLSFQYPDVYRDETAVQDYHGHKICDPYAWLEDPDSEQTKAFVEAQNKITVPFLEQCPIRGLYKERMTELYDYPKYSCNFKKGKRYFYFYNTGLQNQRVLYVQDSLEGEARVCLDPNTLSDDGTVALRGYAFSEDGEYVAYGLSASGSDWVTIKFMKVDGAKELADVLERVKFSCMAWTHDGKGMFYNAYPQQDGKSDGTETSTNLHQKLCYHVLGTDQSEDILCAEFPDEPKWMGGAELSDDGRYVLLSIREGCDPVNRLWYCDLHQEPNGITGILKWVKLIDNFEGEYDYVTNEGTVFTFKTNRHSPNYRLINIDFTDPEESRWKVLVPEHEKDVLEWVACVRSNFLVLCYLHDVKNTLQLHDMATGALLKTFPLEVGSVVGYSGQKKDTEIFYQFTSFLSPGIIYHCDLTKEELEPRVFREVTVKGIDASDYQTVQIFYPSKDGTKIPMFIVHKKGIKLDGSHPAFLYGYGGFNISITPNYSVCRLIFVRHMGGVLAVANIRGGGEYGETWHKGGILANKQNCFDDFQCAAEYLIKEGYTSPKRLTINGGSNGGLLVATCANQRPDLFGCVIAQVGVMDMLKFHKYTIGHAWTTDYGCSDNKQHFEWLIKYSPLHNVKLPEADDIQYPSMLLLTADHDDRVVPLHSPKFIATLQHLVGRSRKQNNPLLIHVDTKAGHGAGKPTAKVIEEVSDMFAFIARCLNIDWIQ

SMILES	IC50
O=C[C@@H]1CCCN1C(=O)[C@@H]1CCC[C@H]1C(=O)CCc1ccccc1 (mixture of isomers) [1 (b), N-[trans-2-(3-phenylpropanoyl)cyclopentanecarbonyl]-L-prolinal]	14 nM
O=C[C@@H]1CCCN1C(=O)[C@@H]1CCCC[C@H]1C(=O)CCc1ccccc1 (mixture of isomers) [1 (c), N-[trans-2-(3-phenylpropanoyl)cyclohexanecarbonyl]-L-prolinal]	24 nM
O=C[C@@H]1CCCN1C(=O)CCC(=O)CCc1ccccc1 [1 (a), N-(6-phenyl-4-oxohexanoyl) L-prolinal]	120 nM
CC(C)C(C(=O)CCCCc1ccccc1)C(=O)N1CCC[C@H]1C=O (stereo partly drawn) [1 (d), N-(2RS-isopropyl-3-oxo-7-phenylheptanoyl)-L-prolinal]	150 nM
O=C[C@@H]1CCCN1C(=O)CCC(=O)CCc1cccc(Cl)c1 [1 (e), N-[6-(3-chlorophenyl)-4-oxohexanoyl]-L-prolinal]	50 nM
O=C[C@@H]1CCCN1C(=O)CCC(=O)CCCCc1ccccc1 [1 (f), N-(4-oxo-8-phenyloctanoyl)-L-prolinal]	62 nM
COc1ccc(CCC(=O)CCC(=O)N2CCC[C@H]2C=O)cc1 [1 (g), N-[6-(4-methoxyphenyl)-4-oxohexanoyl]-L-prolinal]	84 nM
O=C[C@@H]1CCCN1C(=O)CCC(=O)CCc1ccc(Cl)cc1 [1 (h), N-[6-(4-chlorophenyl)-4-oxohexanoyl]-L-prolinal]	29 nM
Cc1ccc(CCC(=O)CCC(=O)N2CCC[C@H]2C=O)cc1 [1 (i), N-[6-(4-methylphenyl)-4-oxohexanoyl]-L-prolinal]	11 nM
O=C[C@@H]1CCCN1C(=O)CCC(=O)CCCc1ccccc1[N+](=O)[O-] [1 (j), N-[7-(2-nitrophenyl)-4-oxoheptanoyl]-L-prolinal]	32 nM
O=C[C@@H]1CCCN1C(=O)CCC(=O)CCc1cccc2ccccc12 [1 (k), N-[6-(1-naphthyl)-4-oxohexanoyl]-L-prolinal]	18 nM
O=C[C@@H]1CCCN1C(=O)CCC(=O)CCc1ccc2ccccc2c1 [1 (l), N-[6-(2-naphthyl)-4-oxohexanoyl]-L-prolinal]	39 nM
O=C[C@@H]1CCCN1C(=O)CCC(=O)CCc1ccc(C(F)(F)F)cc1 [1 (m), N-[4-oxo-6-(p-trifluoro-methylphenyl)hexanoyl]-L-prolinal]	15 nM
O=C[C@@H]1CCCN1C(=O)CCC(=O)CCCc1ccccc1 [Example 1, N-(7-phenyl-4-oxoheptanoyl)-L-prolinal]	27 nM

Test system: prolyl endopeptidase
Assay: not given
Conditions: in words; J. Neurochem., 41, 69 (1983); cited from earlier work

SMILES	inhibits prolyl endopeptidase
O=CC1CCCN1C(=O)[C@@H]1CCCN1C(=O)OCc1ccccc1 (stereo partly drawn) [N-benzyloxycarbonyl-L-propyl-prolinal] (Cbz-Pro-[ξP]-aldehyde)	strongly inhibits prolyl endopeptidase
O=C(NCC(=O)N1CCC[C@H]1C(=O)CCl)OCc1ccccc1 [N-benzyloxycarbonyl-glycyl-L-prolyl-chloromethane] (Cbz-Gly-Pro-CH2Cl)	strongly inhibits prolyl endopeptidase
